For this assay, the target named is human S1P1 (EDG-1) (Homo sapiens (Human), UniProt P21453). As to the kind of experiment: Confirmation test of antagonistic activity for human S1P1 receptor (35S-GTP binding, cell membranes). The assay is classed as biochemical. To be noted: inhibition of 35S-GTP binding induced by S1P1 receptor selective agonist; HEK293 membranes expressing human S1P1. On the procedure:
Confirmation Test of Antagonistic Activity for Human S1P1 Receptor
Test compounds were tested by reduction of functional binding activity of ^35S-GTP (guanosine 5′-O-[gamma-thio] triphosphate, PerkinElmer) to G protein using cell membranes expressing human S1P1 (EDG-1). S1P1-pcDNA3.1/V5-His-Topo vector was prepared by inserting cDNA (NM_001400) encoding human S1P1 into the expression vector, pcDNA3.1/V5-His-Topo (registered trademark) (Invitrogen). Next, the above S1P1-pcDNA3.1 vector was transfected into HEK293 cells by Lipofectamine2000 (registered trademark) (Invitrogen). The transfected cells were incubated with D-MEM liquid medium each containing 10% FBS (Fetal bovine serum), 100 U/mL penicillin, 100 μg/mL streptomycin and 1 mg/mL Geneticin (registered trademark) (Invitrogen) in an incubator under the condition of 5% CO2 at 37° C. and Geneticin (registered mark)-resistant cell line stably expressing S1P1 were obtained. The obtained stably S1P1-expressing cells were incubated with D-MEM liquid medium each containing 10% FBS and 0.5 mg/mL Geneticin (registered trademark) in an incubator under the condition of 5% CO2 at 37° C. The cells grown to confluence were harvested by a buffer solution containing 50 mM Tris, 2 mM EDTA (ethylmediaminetetraacetic acid) and 125 mM sodium chloride, and centrifuged at 1880×g, 4° C. for 10 minutes. After a supernatant was removed, a cell pellet was resuspended by the same buffer solution. For making cell membranes fragile, this cell suspension was frozen at −80° C. and then thawed. The cells were centrifuged at 1880×g, 4° C. for 10 minutes, and a supernatant was removed. The cell pellet was suspended by adding the same buffer solution and a fracture solution (10 mM sodium bicarbonate and 5 mM EDTA, pH 7.5) at a ratio of 2:1. The cells were fractured by subjecting the cell suspension to ultrasonication, and a cell membrane fraction was isolated by centrifugation at 1880×g, 4° C. for 10 minutes and ultracentrifugation of the supernatant at 80000×g, 4° C. for 30 minutes. A pellet of the cell membrane fraction was suspended by the fracture solution containing protease inhibitor cocktail (Roche) and stored at −80° C. until use. A protein concentration of the cell membrane fraction was determined using BCA Protein Assay Kit (Pierce) in accordance with an attached protocol.
Inhibitory activity evaluation was performed by multi-screen (registered trademark) HTS 96-well plate (Millipore) using the cell membrane fraction stably expressing S1P1 obtained by the above operation. 25 μL of assay solution (50 mM Tris, 100 mM sodium chloride, 5 mM magnesium chloride, 1 mM EDTA, 1 mM DTT (dithiothreitol), 10 μM GDP (guanosine diphosphate) and 0.5% BSA (bovine serum albumin), pH 7.4), 25 μL of test compounds solution diluted by assay solution and 25 μL of the membrane fraction (0.2 μg protein/μL) were added to each well, and the mixture was gently shaken at room temperature: for 30 minutes. Then, 25 μL of ^35S-GTP, and 25 μL of 50 nM S1P1 receptor selective agonist (1-[4-(4-phenyl-5-trifluoromethylthiophen-2-ylmethoxy)benzyl]azetidine-3-carboxylic acid, “J. Med. Chem.”, 2004, vol. 47, pp. 6662-6665, compound 18) were added to each well, respectively, and it was reacted at room temperature for 60 minutes. After the reaction, a reaction solution of each well was suction-filtered. After suction filtration, ice-colded wash solution (50 mM Tris, 100 mM sodium chloride, […] and 1 mM EDTA, pH 7.4) was added to each well, and moreover filters were washed by suction filtration. This wash procedure was performed three times. A bottom of the plate containing the filters was dried at 60° C. After drying, 30 μL of MicroScinti-40 (PerkinElmer) was added to each well, and the radioactivity adsorbed on the filter was determined by TopCount NXT (registered trademark) (PerkinElmer) after shaking for 30 minutes at room temperature. […]
human S1P1 (EDG-1), sequence (P21453 whole entry): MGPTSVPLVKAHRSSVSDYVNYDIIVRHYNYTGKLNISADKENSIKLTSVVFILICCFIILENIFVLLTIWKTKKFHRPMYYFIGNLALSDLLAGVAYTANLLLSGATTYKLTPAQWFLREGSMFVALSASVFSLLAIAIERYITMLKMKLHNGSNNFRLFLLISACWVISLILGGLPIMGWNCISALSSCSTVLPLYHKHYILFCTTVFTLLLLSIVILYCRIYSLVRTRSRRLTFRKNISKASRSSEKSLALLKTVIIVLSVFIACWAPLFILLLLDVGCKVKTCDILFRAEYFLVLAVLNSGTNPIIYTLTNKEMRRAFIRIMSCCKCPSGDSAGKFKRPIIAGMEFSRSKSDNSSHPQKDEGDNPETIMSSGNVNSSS
`CCN(c1ccc(Cl)c(C)c1)C(C)c1cc(Cl)cc(CN2CC(C(=O)O)C2)c1` (centres unmarked) [Compound 2-29] yielded an IC50 of 1.2 nM.
In turn, `CCN(Cc1cccc(CN2CC(C(=O)O)C2)c1)c1ccc(Cl)c(C)c1` [Compound 3-1, 1-(3-{[(4-Chloro-3-methylphenyl)(ethyl)amino]methyl}benzyl)azetidine-3-carboxylic acid] returned an IC50 of 8.9 nM.
As for `Cc1cc(N(C)Cc2cccc(CN3CC(C(=O)O)C3)c2)ccc1Cl` [Compound 1-2], the IC50 worked out at 7.6 nM.
`CCN(c1cccc(Cl)c1)C(C)c1ccc(C)c(CN2CC(C(=O)O)C2)c1` (centres unmarked) [Compound 2-49] had a half-inhibitory concentration (IC50) of 0.9 nM.
The result for `Cc1cc(CN2CC(C(=O)O)C2)c2c(c1)C(N(C)c1ccc(Cl)c(C)c1)CC2` (centres unmarked) [Compound 2-9] reads 22.2 nM; that for `CCN(c1ccc(Cl)c(C)c1)C1CCc2c1ccc(F)c2CN1CC(C(=O)O)C1` (centres unmarked) [Compound 2-15, 1-{1-[(4-Chloro-3-methylphenyl)(ethyl)amino]-5-fluoroindan-4-ylmethyl}-azetidine-3-carboxylic acid], 2.5 nM; that for `CCN(Cc1ccc(C)c(CN2CC(C(=O)O)C2)c1)c1ccc(Cl)c(C)c1` [Compound 2-1, 1-(5-{[(4-Chloro-3-methylphenyl)(ethyl)amino]methyl}-2-methylbenzyl)azetidine-3-carboxylic acid], 5.3 nM.
The result for `CCN(c1ccc(Cl)c(C)c1)[C@H](C)c1cccc(CN2CC(C(=O)O)C2)c1` [Compound 6-5] reads 1.2 nM.
The result for `Cc1ccc(C(C)N(C)c2ccc(Cl)c(C(F)(F)F)c2)cc1CN1CC(C(=O)O)C1` (centres unmarked) [Compound 2-25, 1-(5-{1-[(4-Chloro-3-trifluommethylphenyl)(methyl)amino]ethyl}-2-methylbenzyl)azetidine-3-carboxylic acid] reads 6.7 nM; that for `CCN(c1ccc(Cl)cc1)C(C)c1ccc(C)c(CN2CC(C(=O)O)C2)c1` (centres unmarked) [Compound 2-47], 1.8 nM; that for `Cc1ccc(C(C)N(CCO)c2ccc(Cl)c(C(F)(F)F)c2)cc1CN1CC(C(=O)O)C1` (centres unmarked) [Compound 2-37], 8.6 nM.
In turn, `Cc1ccc2c(c1CN1CC(C(=O)O)C1)CCC2N(CCO)c1ccc(Cl)c(C(F)(F)F)c1` (centres unmarked) [Compound 2-39] came in with an IC50 of 3.4 nM.
The result for `CCN(c1ccc(Cl)c(C)c1)C1CCc2c1ccc(C)c2CN1CC(C(=O)O)C1` (centres unmarked) [Compound 2-21, 1-{1-[(4-Chloro-3-methylphenyl)(ethyl)amino]-5-methylindan-4-ylmethyl}-azetidine-3-carboxylic acid] reads 1.9 nM.
The result for `CCN(c1ccc(Cl)c(C(F)(F)F)c1)C(C)c1ccc(CO)c(CN2CC(C(=O)O)C2)c1` (centres unmarked) [Compound 5-1, 1-(5-{1-[(4-Chloro-3-trifluoromethylphenyl)(ethyl)amino]ethyl}-2-hydroxymethyl-benzyl)azetidine-3-carboxylic acid] reads 4.4 nM; that for `Cc1cc(N(C)C(C)c2ccc(C)c(CN3CC(C(=O)O)C3)c2)ccc1Cl` (centres unmarked) [Compound 2-13], 21.5 nM; that for `Cc1cc(N(C)C2CCc3c(CN4CC(C(=O)O)C4)cccc32)ccc1Cl` (centres unmarked) [Compound 2-17], 27.3 nM.
The result for `Cc1cc(N(C)Cc2ccc(C)c(CN3CC(C(=O)O)C3)c2)ccc1Cl` [Compound 2-2] reads 6.7 nM; that for `CCN(c1ccc(Cl)c(C(F)(F)F)c1)C(CO)c1ccc(C)c(CN2CC(C(=O)O)C2)c1` (centres unmarked) [Compound 6-2], 2.5 nM; that for `CCN(c1ccc(Cl)c(C)c1)C1CCc2c(CN3CC(C(=O)O)C3)cccc21` (centres unmarked) [Compound 6-3], 2.8 nM.
The compound `CCN(c1ccc(Cl)c(C(F)(F)F)c1)C(C)c1ccc(Cl)c(CN2CC(C(=O)O)C2)c1` (centres unmarked) [Compound 2-34, 1-(2-Chloro-5-{1-[(4-chloro-3-trifluoromethylphenyl)(ethyl)amino]ethyl}-benzyl)azetidine-3-carboxylic acid] registered an IC50 of 1.5 nM.
The result for `Cc1ccc(C(C)N(C)c2ccc(C#N)c(C(F)(F)F)c2)cc1CN1CC(C(=O)O)C1` (centres unmarked) [Compound 2-44] reads 9 nM.
In turn, `CC(c1ccc(Cl)c(CN2CC(C(=O)O)C2)c1)N(C)c1ccc(Cl)c(C(F)(F)F)c1` (centres unmarked) [Compound 2-33, 1-(2-Chloro-5-{1-[(4-chloro-3-trifluoromethylphenyl)(methyl)amino]-ethyl}benzyl)azetidine-3-carboxylic acid] gave an IC50 of 7.8 nM.
`CCC(c1ccc(C)c(CN2CC(C(=O)O)C2)c1)N(CC)c1ccc(Cl)c(C)c1` (centres unmarked) [Compound 2-46, 1-(5-{1-[(4-Chloro-3-methylphenyl)(ethyl)amino]propyl}-2-methylbenzyl)-azetidine-3-carboxylic acid] returned an IC50 of 1.9 nM.
The result for `Cc1cc(NC(C)c2ccc(C)c(CN3CC(C(=O)O)C3)c2)ccc1Cl` (centres unmarked) [Comparative Example 1, 1-{5-[1-(4-Chloro-3-methylphenylamino)ethyl]-2-methylbenzyl}azetidine-3-carboxylic acid, reference compound] reads 441 nM; that for `CCN(c1ccc(Cl)c(C)c1)C(C)c1ccc(OC)c(CN2CC(C(=O)O)C2)c1` (centres unmarked) [Compound 2-30], 6.9 nM.
Consider `CCN(Cc1ccc(C)c(CN2CC(C(=O)O)C2)c1C)c1ccc(Cl)c(C)c1` [Compound 2-11], for which the IC50 is 1.1 nM.
`CCN(c1ccc(Cl)c(C)c1)C(C)c1ccc(C(F)(F)F)c(CN2CC(C(=O)O)C2)c1` (centres unmarked) [Compound 2-43, 1-(5-{1-[(4-Chloro-3-methylphenyl)(ethyl)amino]ethyl}-2-trifluoromethylbenzyl)azetidine-3-carboxylic acid]: the IC50 amounted to 3.5 nM.
The result for `CCN(c1cc(C(F)(F)F)cc(C(F)(F)F)c1)C(C)c1ccc(C)c(CN2CC(C(=O)O)C2)c1` (centres unmarked) [Compound 4-2] reads 3.1 nM; that for `Cc1ccc2c(c1CN1CC(C(=O)O)C1)CCC2N(C)c1ccc(Cl)c(C(F)(F)F)c1` (centres unmarked) [Compound 2-10, 1-{1-[(4-Chloro-3-trifluoromethylphenyl)(methyl)amino]-5-methylindan-4-ylmethyl}azetidine-3-carboxylic acid], 2.5 nM.
Take `CCN(c1ccc(Cl)c(C)c1)C1CCCc2c(CN3CC(C(=O)O)C3)cccc21` (centres unmarked) [Compound 3-7]: the half-inhibitory concentration (IC50) was 12.8 nM.
The result for `Cc1cc(N(Cc2cccc(CN3CC(C(=O)O)C3)c2)C(C)C)ccc1Cl` [Compound 3-4] reads 15.3 nM.
Turning to `CCN(c1ccc(Cl)c(C)c1)C1CCc2c(CN3CC(C(=O)O)C3)cc(F)cc21` (centres unmarked) [Compound 2-16], the IC50 was 3.3 nM.
The result for `CCN(c1ccc(Cl)c(C(F)(F)F)c1)C(C)c1ccc(C(F)(F)F)c(CN2CC(C(=O)O)C2)c1` (centres unmarked) [Compound 2-41, 1-(5-{1-[(4-Chloro-3-trifluoromethylphenyl)(ethyl)amino]ethyl}-2-trifluoromethylbenzyl)azetidine-3-carboxylic acid] reads 1.9 nM; that for `C=Cc1ccc(C(C)N(CC)c2ccc(Cl)c(C(F)(F)F)c2)cc1CN1CC(C(=O)O)C1` (centres unmarked) [Compound 4-1, 1-(5-{1-[(4-Chloro-3-trifluoromethylphenyl)(ethyl)amino]ethyl}-2-vinylbenzyl)-azetidine-3-carboxylic acid], 1.2 nM; that for `CCN(c1ccc(Cl)c(C)c1)C(C)c1ccc(Cl)c(CN2CC(C(=O)O)C2)c1` (centres unmarked) [Compound 2-32, 1-(2-Chloro-5-{1-[(4-chloro-3-methylphenyl)(ethyl)amino]ethyl}benzyl)-azetidine-3-carboxylic acid], 1.1 nM.
